# Assay results as given in patent US7425640B2, “Substituted 5-carboxyamide pyrazoles and [1,2,4]triazoles as antiviral agents” (priority 2004, dated 2008).
# Biological target: HCV RNA-dependent RNA polymerase NS5B (Δ21) (Hepatitis C virus genotype 1b, UniProt P26663)
# Assay: Assay for HCV RNA-dependent RNA polymerase activity (SPA, [3H]-GTP incorporation)
# Type: biochemical
# Conditions: read-out: Δ21 Activity (IC50 μM); 50 nM NS5B (Δ21), class symbols
# Summary of the method: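 NS5B (Δ21), 50 nM, was incubated 3 h at room temperature with biotinylated oligoG12/polyC template, 5 μM GTP plus [3H]-GTP, in HEPES pH 7.3 with MgCl2 and NaCl. [3H]-GTP incorporation was read by streptavidin SPA. IC50 came from single experiments across 11 two-fold dilutions (0.05–50 μM).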
# Sequence of HCV RNA-dependent RNA polymerase NS5B (Δ21) (P26663 2420-2989, stated change not applied): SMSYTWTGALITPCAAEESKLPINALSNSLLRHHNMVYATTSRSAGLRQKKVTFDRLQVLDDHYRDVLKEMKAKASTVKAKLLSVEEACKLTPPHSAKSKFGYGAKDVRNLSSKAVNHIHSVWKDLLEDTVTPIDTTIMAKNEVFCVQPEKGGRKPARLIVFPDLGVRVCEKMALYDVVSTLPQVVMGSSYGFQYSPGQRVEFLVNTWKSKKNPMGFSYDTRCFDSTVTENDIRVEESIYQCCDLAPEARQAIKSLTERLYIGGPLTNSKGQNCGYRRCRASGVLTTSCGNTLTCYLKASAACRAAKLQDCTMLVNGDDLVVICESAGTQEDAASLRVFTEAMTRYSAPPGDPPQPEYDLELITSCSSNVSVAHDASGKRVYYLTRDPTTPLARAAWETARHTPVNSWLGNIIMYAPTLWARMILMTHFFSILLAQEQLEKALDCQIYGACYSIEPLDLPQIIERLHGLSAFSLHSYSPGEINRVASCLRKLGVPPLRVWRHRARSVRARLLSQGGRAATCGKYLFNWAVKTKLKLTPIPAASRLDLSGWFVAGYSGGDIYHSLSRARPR
row,Structure (SMILES),IC50
1,C[C@@H](NC(=O)c1cc(C(=O)NC2CCCCC2OCc2ccccc2)n(CC(=O)N[C@H]2CCCC[C@@H]2OCc2ccccc2)n1)c1cccc2ccccc12 (stereo partly drawn) [Compound 74],0.1 to 1 µM
2,O=C(Cn1nc(C(=O)NCc2cccs2)cc1C(=O)N[C@H]1CCCC[C@@H]1OCc1ccccc1)N[C@H]1CCCC[C@@H]1OCc1ccccc1 [Compound 92],0.1 to 1 µM
3,CCOC(=O)c1nc(C(=O)N[C@H]2CCCC[C@@H]2OCc2ccccc2)n(CC(=O)N[C@H]2CCCC[C@@H]2OCc2ccccc2)n1 [Compound 141],0.1 to 1 µM
4,Cc1ccc(OCC2CC2)c(NC(=O)Cn2nc(C(=O)O)cc2C(=O)N[C@H]2CCCC[C@@H]2OCc2ccccc2)c1 [Compound 56],0.1 to 1 µM
5,O=C(Cn1nc(C(=O)NC2CCCCC2)cc1C(=O)N[C@H]1CCCC[C@@H]1OCc1ccccc1)N[C@H]1CCCC[C@@H]1OCc1ccccc1 [Compound 83],0.1 to 1 µM
6,CN(C(=O)Cn1nc(C(=O)O)cc1C(=O)N(C)[C@H]1CCCC[C@@H]1OCc1ccccc1)[C@H]1CCCC[C@@H]1OCc1ccccc1 [Compound 158],0.1 to 1 µM
7,C=CCNC(=O)c1cc(C(=O)N[C@H]2CCCC[C@@H]2OCc2ccccc2)n(CC(=O)N[C@H]2CCCC[C@@H]2OCc2ccccc2)n1 [Compound 111],0.1 to 1 µM
8,CS(=O)(=O)NC(=O)c1cc(C(=O)N[C@H]2CCCC[C@@H]2OCc2ccccc2)n(CC(=O)N[C@H]2CCCC[C@@H]2OCc2ccccc2)n1 [Compound 155],0.1 to 1 µM
9,O=C(Cn1nc(C(=O)N2c3ccccc3CCc3ccccc32)cc1C(=O)N[C@H]1CCCC[C@@H]1OCc1ccccc1)N[C@H]1CCCC[C@@H]1OCc1ccccc1 [Compound 119],0.1 to 1 µM
10,CC(C)(C)c1ccc(S(=O)(=O)Nc2cc(C(=O)N[C@H]3CCCC[C@@H]3OCc3ccccc3)n(CC(=O)N[C@H]3CCCC[C@@H]3OCc3ccccc3)n2)cc1 [Compound 87],0.1 to 1 µM
11,O=C(Cn1nc(C(=O)NC2CCc3ccccc32)cc1C(=O)N[C@H]1CCCC[C@@H]1OCc1ccccc1)N[C@H]1CCCC[C@@H]1OCc1ccccc1 (stereo partly drawn) [Compound 107],0.1 to 1 µM
12,O=C(Cn1nc(C(=O)Nc2nnn[nH]2)nc1C(=O)N[C@H]1CCCC[C@@H]1OCc1ccccc1)N[C@H]1CCCC[C@@H]1OCc1ccccc1 [Compound 115],0.1 to 1 µM
13,O=C(Cn1nc(NS(=O)(=O)c2cccc3cccnc23)cc1C(=O)N[C@H]1CCCC[C@@H]1OCc1ccccc1)N[C@H]1CCCC[C@@H]1OCc1ccccc1 [Compound 144],0.1 to 1 µM
14,O=C(Cn1nc(C(=O)NOCc2cccc3ccccc23)cc1C(=O)N[C@H]1CCCC[C@@H]1OCc1ccccc1)N[C@H]1CCCC[C@@H]1OCc1ccccc1 [Compound 68],0.1 to 1 µM
15,Cc1ccc(OCC(C)(C)C)c(NC(=O)c2cc(C(=O)O)nn2CC(=O)N[C@H]2CCCC[C@@H]2OCc2ccccc2)c1 [Compound 114],0.1 to 1 µM
16,CC(=O)Nc1ccc(S(=O)(=O)Nc2cc(C(=O)N[C@H]3CCCC[C@@H]3OCc3ccccc3)n(CC(=O)N[C@H]3CCCC[C@@H]3OCc3ccccc3)n2)cc1 [Compound 82],0.1 to 1 µM
17,O=C(Cn1nc(C(=O)N2CCN(Cc3ccccc3)CC2)cc1C(=O)N[C@H]1CCCC[C@@H]1OCc1ccccc1)N[C@H]1CCCC[C@@H]1OCc1ccccc1 [Compound 156],0.1 to 1 µM
18,O=C(Cn1nc(C(=O)O)nc1C(=O)Nc1ccccc1OCC1CCCCC1)N[C@H]1CCCC[C@@H]1OCc1ccccc1 [Compound 59],0.1 to 1 µM
19,Cc1c(Cl)cccc1S(=O)(=O)Nc1cc(C(=O)N[C@H]2CCCC[C@@H]2OCc2ccccc2)n(CC(=O)N[C@H]2CCCC[C@@H]2OCc2ccccc2)n1 [Compound 67],0.1 to 1 µM
20,O=C(Cn1nc(NS(=O)(=O)c2ccc(Br)c(Br)c2)cc1C(=O)N[C@H]1CCCC[C@@H]1OCc1ccccc1)N[C@H]1CCCC[C@@H]1OCc1ccccc1 [Compound 58],0.1 to 1 µM
21,O=C(Cn1nc(C(=O)O)cc1C(=O)N[C@H]1CCCC[C@@H]1OCc1ccccc1)N[C@H]1CCCC[C@@H]1NCc1ccccc1 [Compound 166],0.1 to 1 µM
22,COC(CNC(=O)c1cc(C(=O)N[C@H]2CCCC[C@@H]2OCc2ccccc2)n(CC(=O)N[C@H]2CCCC[C@@H]2OCc2ccccc2)n1)OC [Compound 146],0.1 to 1 µM
23,O=C(Cn1nc(NC(=O)C(F)(F)F)cc1C(=O)N[C@H]1CCCC[C@@H]1OCc1ccccc1)N[C@H]1CCCC[C@@H]1OCc1ccccc1 [Compound 75],0.1 to 1 µM
24,O=C(Cn1nc(O)cc1C(=O)N[C@H]1CCCC[C@@H]1OCc1ccccc1)N[C@H]1CCCC[C@@H]1OCc1ccccc1 [Compound 69],0.1 to 1 µM
25,O=C(Cn1nc(C(=O)NCc2cccc(Cl)c2)cc1C(=O)N[C@H]1CCCC[C@@H]1OCc1ccccc1)N[C@H]1CCCC[C@@H]1OCc1ccccc1 [Compound 70],0.1 to 1 µM
26,CCOC(=O)c1cc(C(=O)N[C@@H]2CCCC[C@@H]2OCc2ccccc2)n(CC(=O)N[C@H]2CCCC[C@H]2OCc2ccccc2)n1 [Compound 139],0.1 to 1 µM
27,CCCONC(=O)c1cc(C(=O)N[C@H]2CCCC[C@@H]2OCc2ccccc2)n(CC(=O)N[C@H]2CCCC[C@@H]2OCc2ccccc2)n1 [Compound 164],0.1 to 1 µM

# Same assay, conditions: Δ21 Activity (IC50 μM), 50 nM NS5B (Δ21), class symbols
row,Structure (SMILES),IC50
1,O=C(Cn1nc(C(=O)NCCCn2ccnc2)cc1C(=O)N[C@H]1CCCC[C@@H]1OCc1ccccc1)N[C@H]1CCCC[C@@H]1OCc1ccccc1 [Compound 188],> 1 µM
2,COc1ccc(CNC(=O)c2cc(C(=O)N[C@H]3CCCC[C@@H]3OCc3ccccc3)n(CC(=O)N[C@H]3CCCC[C@@H]3OCc3ccccc3)n2)c(OC)c1 [Compound 28],0.05 to 0.1 µM
3,O=C(Cn1nc(NS(=O)(=O)c2ccc(C(F)(F)F)cc2)cc1C(=O)N[C@H]1CCCC[C@@H]1OCc1ccccc1)N[C@H]1CCCC[C@@H]1OCc1ccccc1 [Compound 47],0.05 to 0.1 µM
4,O=C(Cn1nc(NS(=O)(=O)c2cccc(Br)c2)cc1C(=O)N[C@H]1CCCC[C@@H]1OCc1ccccc1)N[C@H]1CCCC[C@@H]1OCc1ccccc1 [Compound 36],0.05 to 0.1 µM
5,O=C(Cn1nc(NS(=O)(=O)c2ccc(Cl)s2)cc1C(=O)N[C@H]1CCCC[C@@H]1OCc1ccccc1)N[C@H]1CCCC[C@@H]1OCc1ccccc1 [Compound 38],0.05 to 0.1 µM
6,COc1cccc(NC(=O)c2cc(C(=O)N[C@H]3CCCC[C@@H]3OCc3ccccc3)n(CC(=O)N[C@H]3CCCC[C@@H]3OCc3ccccc3)n2)c1 [Compound 16],< 0.05 µM
7,Cc1ccc(OCn2nc(C)cc2C)c(NC(=O)c2cc(C(=O)O)nn2CC(=O)N[C@H]2CCCC[C@@H]2OCc2ccccc2)c1 [Compound 208],> 1 µM
8,O=C(Cn1nc(NS(=O)(=O)c2ccccc2F)cc1C(=O)N[C@H]1CCCC[C@@H]1OCc1ccccc1)N[C@H]1CCCC[C@@H]1OCc1ccccc1 [Compound 37],0.05 to 0.1 µM
9,Cc1cc(Oc2ccccc2NC(=O)Cn2nc(C(=O)O)cc2C(=O)N[C@H]2CCCC[C@@H]2OCc2ccccc2)ccc1Cl [Compound 23],0.05 to 0.1 µM
10,O=C(Cn1nc(C(=O)O)cc1C(=O)N[C@H]1CCCC[C@@H]1OCc1ccccc1)Nc1ccc2c(c1)OCO2 [Compound 185],> 1 µM
11,CC(C)(C)OC(=O)Nc1cc(C(=O)N[C@H]2CCCC[C@@H]2OCc2ccccc2)n(CC(=O)N[C@H]2CCCC[C@@H]2OCc2ccccc2)n1 [Compound 172],> 1 µM
12,O=C(Cn1nc(C(=O)O)cc1C(=O)Nc1ccc(F)cc1OCC1CCCCC1)N[C@H]1CCCC[C@@H]1OCc1ccccc1 [Compound 30],0.05 to 0.1 µM
13,O=C(Cn1nc(NS(=O)(=O)c2ccc(Br)cc2)cc1C(=O)N[C@H]1CCCC[C@@H]1OCc1ccccc1)N[C@H]1CCCC[C@@H]1OCc1ccccc1 [Compound 13],< 0.05 µM
14,O=C(Cn1nc(C(=O)O)cc1C(=O)N[C@H]1CCCC[C@@H]1OCc1ccccc1)NC1CCCC[C@@H]1N1CCOCC1 (stereo partly drawn) [Compound 211],> 1 µM
15,CCOC(=O)c1cc(C(=O)N[C@H]2CCCC[C@@H]2OCc2ccccc2)n(CC(=O)Nc2ccc3c(c2)OCO3)n1 [Compound 193],> 1 µM
16,CCOC(=O)c1cc(C(=O)N[C@H]2CCCC[C@@H]2OCc2ccccc2)n(CC(=O)NC2CCCC[C@@H]2NCc2ccccc2)n1 (stereo partly drawn) [Compound 199],> 1 µM
17,CN(C)S(=O)(=O)Nc1cc(C(=O)N[C@H]2CCCC[C@@H]2OCc2ccccc2)n(CC(=O)N[C@H]2CCCC[C@@H]2OCc2ccccc2)n1 [Compound 45],0.05 to 0.1 µM
18,Cc1cc(C(=O)N[C@H]2CCCC[C@@H]2OCc2ccccc2)n(CC(=O)N[C@H]2CCCC[C@@H]2OCc2ccccc2)n1 [Compound 175],> 1 µM
19,C[C@@H](NC(=O)c1cc(C(=O)N[C@H]2CCCC[C@@H]2OCc2ccccc2)n(CC(=O)N[C@H]2CCCC[C@@H]2OCc2ccccc2)n1)c1cccc2ccccc12 [Compound 7],< 0.05 µM
20,O=C(Cn1nc(C(=O)NC2CCN(Cc3ccccc3)CC2)cc1C(=O)N[C@H]1CCCC[C@@H]1OCc1ccccc1)N[C@H]1CCCC[C@@H]1OCc1ccccc1 [Compound 192],> 1 µM
21,O=C(Cn1nc(NS(=O)(=O)c2ccccc2Br)cc1C(=O)N[C@H]1CCCC[C@@H]1OCc1ccccc1)N[C@H]1CCCC[C@@H]1OCc1ccccc1 [Compound 32],0.05 to 0.1 µM
22,O=C(Cn1nc(C(=O)NCCO)cc1C(=O)N[C@H]1CCCC[C@@H]1OCc1ccccc1)N[C@H]1CCCC[C@@H]1OCc1ccccc1 [Compound 191],> 1 µM
23,O=C(Cn1nc(-c2nnn[nH]2)cc1C(=O)Nc1ccccc1OCc1ccccc1)N[C@H]1CCCC[C@@H]1OCc1ccccc1 [Compound 25],0.05 to 0.1 µM
24,O=C(Cn1nc(C(=O)O)cc1C(=O)Nc1ccccc1OCc1ccccc1)N[C@H]1CCCC[C@@H]1OCc1ccccc1 [Compound 39],0.05 to 0.1 µM

# Same assay, conditions: Δ21 Activity (IC50 μM), 50 nM NS5B (Δ21), numeric values
row,Structure (SMILES),IC50
1,O=C(Cn1nc(NS(=O)(=O)c2ccc(Br)cc2)cc1C(=O)N[C@H]1CCCC[C@@H]1OCc1ccccc1)N[C@H]1CCCC[C@@H]1OCc1ccccc1 [drawing 252],0.041 µM
2,O=C(Cn1nc(-c2nnn[nH]2)cc1C(=O)N[C@H]1CCCC[C@@H]1OCc1ccccc1)N[C@H]1CCCC[C@@H]1OCc1ccccc1,0.05 µM
3,O=C(Cn1nc(C(=O)O)cc1C(=O)Nc1cc(C(F)(F)F)ccc1OCc1ccccc1)N[C@H]1CCCC[C@@H]1OCc1ccccc1 [drawing 253],0.041 µM
